Experimental data from patent US5179120A, “Porphycene compounds for photodynamic therapy” (Cytopharm, Inc., priority 1991, dated 1993).

Key:
[1] = Stability towards oxygen and light (observation during preparation); type: physicochemical; settings: traces of oxygen in the presence of light
Description: At room temperature while stirring in the dark, 243 mg (248 μL, 1.6 mmol) DBU were added all at once to a solution of 14.8 mg (20 μmol) tetrakis(bromoethyl)porphycene in 50 mL of absolute THF. After thirty minutes, the agitator was turned off and the mixture left to stand at room temperature for two days. Subsequently the greenish-blue solution was treated with 80 mL of CH2 Cl2 and poured into 80 mL of 0.5% HCl. The organic phase was shaken out and washed with water and a 2% NaHCO3 solution, dried over Na2 SO4 and the solvent was evaporated under vacuum. The residue was chromatographed with CH2 Cl2 on aluminum oxide (Brockmann, II-III activity stage, column 2×10 cm) and the first green fraction was collected. The solvent was slowly evaporated under a slight vacuum and the remaining fine crystalline solid was washed with 3 mL of ice cooled, absolute pentane. Following drying under a high vacuum, 4.1 mg (10 μmol) tetravinylporphycene were obtained. […] The yield was 50%.
All reagents and solvents were purged of oxygen by introducing inert gas and all purification steps were carried out under subdued light, as was the reaction.

[2] = Solubility of the title compound in selected solvents; type: physicochemical
Text: Solubility of the title compound in selected solvents: […]

SMILES | Stability (decomposition) [1] | Solubility of the title compound in selected solvents ([2]; CH2 Cl2) | Solubility of the title compound in selected solvents ([2]; CHCl3) | Solubility of the title compound in selected solvents ([2]; DEET) | Solubility of the title compound in selected solvents ([2]; DMF) | Solubility of the title compound in selected solvents ([2]; DMSO) | Solubility of the title compound in selected solvents ([2]; EtOH) | Solubility of the title compound in selected solvents ([2]; MeOH) | Solubility of the title compound in selected solvents ([2]; THF) | Solubility of the title compound in selected solvents ([2]; Toluene) | Solubility of the title compound in selected solvents ([2]; acetone) | Solubility of the title compound in selected solvents ([2]; ethyl acetate) | Solubility of the title compound in selected solvents ([2]; hexane) | Solubility of the title compound in selected solvents ([2]; i-propanol) | Solubility of the title compound in selected solvents ([2]; water)
C=CC1=Cc2nc1ccc1[nH]c(cc1C=C)c1nc(ccc3[nH]c2cc3C=C)C(C=C)=C1 [2,7,12,17-Tetravinylporphycene] | decomposed even with traces of oxygen in the presence of light |  |  |  |  |  |  |  |  |  |  |  |  |  | 
COCCC1=Cc2nc1ccc1[nH]c(cc1CCOC)c1nc(c(OC(C)=O)cc3[nH]c2cc3CCOC)C(CCOC)=C1 [9-Acetoxy-2,7,12,17-tetrakis(methoxyethyl)porphycene] |  | Excellent | Excellent | Good | Good | Good | Moderate | Moderate | Excellent | Good | Good | Excellent | Insoluble | Moderate | Insoluble
